Laboratory results from ChEMBL document CHEMBL3867424, “Exploring the readthrough of nonsense mutations by non-acidic Ataluren analogues selected by ligand-based virtual screening” (Eur J Med Chem, 2016).
The source made the active and inactive calls. The calls are words filed in the database; no cut-off is given here.

How the values were obtained:
[1] = Cytotoxicity against human HeLa cells assessed as reduction in cell viability at 12 uM measured after 24 to 72 hrs; assay type: toxicity, cell-based
[2] = Cytotoxicity against human HeLa cells assessed as reduction in cell viability at 300 ug/ml measured after 24 to 72 hrs; assay type: toxicity, cell-based
HeLa = test: Binding affinity to Photinus pyralis luciferase mRNA harboring the UGA premature stop codon expressed in human HeLa cells assessed as suppression of nonsense mutations by read-through of premature stop codon at 12 uM measured after 24 hrs by luminescence analysis; assay type: cell-based
IB3-1 [3] = test: Binding affinity to CFTR mRNA UGA mutant in human IB3-1 cells carrying W1282X mutation in CFTR gene assessed as increase in CFTR expression measured after 24 to 72 hrs by Western blot analysis; assay type: cell-based
IB3-1 [4] = test: (§1) Binding affinity to CFTR mRNA UGA mutant in human IB3-1 cells carrying W1282X mutation in CFTR gene assessed as suppression of nonsense mutations by read-through of UGA premature stop codon measured as induction of CFTR re-expression after 24 hrs by DAPI/Alexa-488/WGA-Alexa594 staining-based immunofluorescence analysis; assay type: cell-based
IB3-1 [5] = test: as §1, with “localization” for “induction”, “in cell membrane” for “re-expression”; assay type: cell membranes

SMILES	Activity [1]	also measured
N#Cc1cccc(-c2nc(-c3ccccn3)no2)c1	Non-Toxic	–
CN[C@@H]1[C@@H](O)[C@@H](O[C@H]2[C@H](O)[C@@H](O[C@H]3O[C@H](C(C)O)[C@@H](O)[C@H](O)[C@H]3N)[C@H](N)C[C@@H]2N)OC[C@]1(C)O (some centres undefined)	–	Activity [2]: Toxic
Cc1cccc(-c2nc(-c3ccccc3)no2)c1	Non-Toxic	–
Cc1cccc(-c2nc(-c3ccncc3)no2)c1	Non-Toxic	–
Cc1cccc(-c2nc(-c3cccnc3)no2)c1	Non-Toxic	–
O=C(O)c1cccc(-c2noc(-c3ccccc3F)n2)c1 [ATALUREN]	Non-Toxic	Activity (HeLa): Active; Activity (IB3-1 [3]): Active
Cc1cccc(-c2nc(-c3ccccn3)no2)c1	Non-Toxic	Activity (HeLa): Active; Activity (IB3-1 [4]): Active; Activity (IB3-1 [5]): Active; Activity (IB3-1 [3]): Active
Cc1cccc(-c2noc(-c3ccccc3C)n2)c1	Non-Toxic	–
